Values joined by “and” are separate entries in the source; they are usually repeats but may differ in a detail not shown here. Identical values can stand only once.
Test system: Trinitrobenzenesulfonic Acid (TNBS) Rat Model of Colonic Inflammation
Experiment: Trinitrobenzenesulfonic acid (TNBS) rat model of colonic inflammation, oral treatment Days 1-6, evaluation Day 7
Type: in vivo, Sprague-Dawley rats
Design: key to Average Colonic Score: sum of adhesions, strictures, ulcers and wall thickness scores
Experimental: In Vivo Efficacy of PDE4 Inhibitor Prodrug in the Trinitrobenzenesulfonic Acid (TNBS) Rat Model of Colonic Inflammation
2. 1.62 g of prodrug from Example 2 (WB301), lot 2 (MW 587.12) in a clear 20 mL glass vial (orange material) which was stored at 4-8° C.
38 Sprague-Dawley rats (Harlan Sprague-Dawley, Inc. male, PO #599229, R #3450, 200-220 g) were received, individually examined and housed in nine cages of four rats each and one cage containing two rats. No clinical signs of disease or distress were observed. The rats were placed in quarantine with daily inspections. The rats were ear notched (SOP 800) for identification purposes, weighed (RESULTS), and sorted into four treatment groups of eight rats each based upon average body weight. The rats were individually examined and found to be free of any clinical signs of disease or distress. No deaths were recorded during the quarantine period. The rats were released to routine maintenance.
A 16 mg/ml TNBS solution was prepared be adding 2.729 ml picrylsulfonic acid solution (1 M, FLU KA, Cat. 92822, lot CDBB6609V) to 22.271 ml de-ionized water (dH20) and 25 ml 100% ethanol (200 proof, Sigma, Cat. E7023, lot SHBH3633V).
The rats were weighed (RESULTS), anesthetized (SOP1810) and Groups 1-4 were intra-rectally instilled with 4 ml/kg TNBS solution (64 mg/kg), the anus was pinched closed and the rat held inverted for one minute.
400 mg (-)riboflavin was dissolved in 40 ml DMSO (Sigma, Cat. D5879, lot 16K0127) by sonication in a 40° C. water bath for 20 minutes in an amber glass bottle, followed by storage at room temperature overnight to prepare a 10 mg/ml yellow solution.
135 mg NaOH (Fisher Scientific, Cat. S320, lot 066620) was dissolved in 100 ml dH2O to prepare a 1.35 mg/ml solution. 128.46 mg prednisolone 21-hemisuccinate sodium salt (Sigma, Cat. P4153, lot BCBB6136V, salt factor 1.339) was dissolved in 9.59 ml (-)riboflavin/DMSO followed by addition of 9.59 ml PEG400 (Sigma, Cat. 91893, lot BCBB7720). 28.781 aqueous NaOH was added with sonication to prepare a 2 mg/ml solution for Group 4. 44 mg WB301 was vortexed in 2.19 ml (-)riboflavin/DMSO to yield an orange solution followed by addition of 2.19 ml PEG400. 6.621 ml aqueous NaOH was added with sonication to prepare a 4 mg/ml solution for Group 1. 132 mg WB301 was vortexed in 2.19 ml (-)riboflavin/DMSO to yield an orange solution followed by addition of 2.19 ml PEG400. 6.621 ml aqueous NaOH was added with sonication to prepare a 12 mg/ml solution for Group 2. 6.6 mg apremilast was vortexed in 2.2 ml (-)riboflavin/DMSO to yield an orange solution followed by addition of 6.6 ml PEG400. 2.2 ml dH2O was added to prepare a 0.6 mg/ml solution for Group 3.
The rats were weighed (RESULTS) and daily oral (PO, SOP 1651) dosing at 5 ml/kg was initiated as in TABLE 1.
The rats were weighed (RESULTS) and the animals were dosed as described above daily. WB301 and apremilast solutions were prepared fresh daily as described above.
The rats were weighed (RESULTS) anesthetized, a midline incision was made in the abdomen and the colon was evaluated for adhesions and stricture (RESULTS). The colon was removed and the length recorded (RESULTS). A midline incision was made the entire length of the colon, the contents removed and the colon weight and colon wall thickness recorded (RESULTS). A section of the colon was preserved in 20 volumes of 10% neutral buffered formalin (Richard-Allan Scientific, Cat. 5701, lot 378532, exp07/2020). The carcasses were disposed of.
3) involving several bowel loops=2
4) severe, proximal dilatation=3
2) linear ulceration <1 cm=1
3) two linear ulcers <1 cm=2
4) more sites of ulceration or one large ulcer=3

[1] = group mean, Group 3, 3 mg/kg PO daily, Day 7
[2] = group mean, Group 3, 3 mg/kg PO daily, Day 7, score 0-2
[3] = group mean, Group 3, 3 mg/kg PO daily, Day 7, score 0-3
[4] = individual rats, Group 3, 3 mg/kg PO daily, Day 7

Question: How did the macroscopic disease scores (Group 3, 3 mg/kg daily oral) turn out when CCOc1cc([C@@H](CS(C)(=O)=O)N2C(=O)c3cccc(NC(C)=O)c3C2=O)ccc1OC [Apremilast, apremilast, reference compound] was run?
Answer: The macroscopic disease scores was “improvement of the macroscopic disease scores”.

Question: And the “study day on which rats began to recover from TNBS-induced weight loss” value (Group 3, 3 mg/kg daily oral)?
Answer: The value was 6 days.

Question: What about the “reduction in overall colonic score” value (Group 3, 3 mg/kg daily oral, assuming a colonic score of 10 for vehicle-treated rats) of the same compound?
Answer: The value was 25%.

Question: What about the body weight loss (Group 3, 3 mg/kg daily oral, through DAY 5) of the same compound?
Answer: Its body weight loss is 11%.

Question: And the “Average # Ulcers” value [1]?
Answer: The value was 1.

Question: And the “Average Colon Length” value [1]?
Answer: Its value is 13.1 cm.

Question: What about the “Average Colon Weight” value [1] of the same compound?
Answer: Its value is 4.793 g.

Question: What about the “Average Colonic Score” value [1] of the same compound?
Answer: The value was 7.6.

Question: And the “Average Ratio (colon length/colon weight)” value [1]?
Answer: Its value is 3.470 cm/g.

Question: What about the “Average Ulcer Length” value [1] of the same compound?
Answer: The value was 6.3 cm.

Question: And the “Average Wall Thickness” value [1]?
Answer: The value was 3.0 mm.

Question: What about the “Average Adhesions” value [2] of the same compound?
Answer: The value was 1.3.

Question: What about the “Average Colon Wall Thickness, score” value [2] of the same compound?
Answer: Its value is 1.5.

Question: What about the “Average Strictures” value [3] of the same compound?
Answer: The value was 1.9.

Question: And the “Average Ulcers, score” value [3]?
Answer: The value was 3.0.

Question: And the “Average Rat Weight” value (group mean, Group 3, 3 mg/kg PO daily, study day 0, day of TNBS, before dosing)?
Answer: The value was 214 g.

Question: What about the “Average Rat Weight” value (group mean, Group 3, 3 mg/kg PO daily, study day 1, before first dose) of the same compound?
Answer: Its value is 207 g.

Question: And the “Average Rat Weight” value (group mean, Group 3, 3 mg/kg PO daily, study day 2)?
Answer: The value was 198 g.

Question: What about the “Average Rat Weight” value (group mean, Group 3, 3 mg/kg PO daily, study day 3) of the same compound?
Answer: Its value is 195 g.

Question: What about the “Average Rat Weight” value (group mean, Group 3, 3 mg/kg PO daily, study day 4) of the same compound?
Answer: Its value is 190 g.

Question: And the “Average Rat Weight” value (group mean, Group 3, 3 mg/kg PO daily, study day 5)?
Answer: Its value is 190 g.

Question: What about the “Average Rat Weight” value (group mean, Group 3, 3 mg/kg PO daily, study day 6) of the same compound?
Answer: Its value is 194 g.

Question: What about the “Average Rat Weight” value (group mean, Group 3, 3 mg/kg PO daily, study day 7) of the same compound?
Answer: Its value is 201 g.

Question: And the “Average Rat Weight” value (group mean, Group 3, 3 mg/kg PO daily, study day −3, before TNBS and dosing)?
Answer: Its value is 215 g.

Question: And the “# Ulcers” value [4]?
Answer: The value was 1.

Question: And the “Colon Length” value [4]?
Answer: The value was 10.0 cm and 15.5 cm and 12.0 cm (2×) and 11.5 cm and 13.0 cm and 15.0 cm and 16.0 cm.

Question: What about the “Colon Weight” value [4] of the same compound?
Answer: The value was 3.608 g and 7.577 g and 2.860 g and 3.000 g and 4.462 g and 9.199 g and 6.085 g and 1.550 g.

Question: What about the “Ratio (colon length/colon weight)” value [4] of the same compound?
Answer: Its value is 2.772 cm/g and 2.046 cm/g and 4.196 cm/g and 3.833 cm/g and 2.913 cm/g and 1.631 cm/g and 2.629 cm/g and 7.742 cm/g.

Question: What about the “Ulcer Length” value [4] of the same compound?
Answer: Its value is 6.5 cm (2×) and 5.5 cm and 6.0 cm and 6.4 cm and 8.0 cm and 7.5 cm and 4.0 cm.

Question: What about the “Wall Thickness” value [4] of the same compound?
Answer: The value was 2.5 mm (3×) and 3.5 mm (2×) and 3.7 mm and 4.0 mm and 1.5 mm.

Question: What about the “Colon Wall Thickness, score” value (individual rats, Group 3, 3 mg/kg PO daily, Day 7, less than 1 mm=0, 1-3 mm=1, >3 mm=2) of the same compound?
Answer: Its value is 1 (4×) and 2 (4×).

Question: And the “Ulcers, score” value (individual rats, Group 3, 3 mg/kg PO daily, Day 7, none=0, linear ulceration <1 cm=1, two linear ulcers <1 cm=2, more sites or one large ulcer=3)?
Answer: Its value is 3.

Question: And the Strictures (individual rats, Group 3, 3 mg/kg PO daily, Day 7, score none=0, mild=1, moderate=2, severe, proximal dilatation=3)?
Answer: Its Strictures is 1 (3×) and 3 (4×) and 0.

Question: What about the Adhesions (individual rats, Group 3, 3 mg/kg PO daily, Day 7, score none=0, minimal=1, involving several bowel loops=2) of the same compound?
Answer: Its Adhesions is 1 (4×) and 2 (3×) and 0.

Question: And the “Colonic Score” value (individual rats, Group 3, 3 mg/kg PO daily, Day 7, sum of adhesions, strictures, ulcers and wall thickness scores)?
Answer: The value was 6 and 10 (2×) and 7 (2×) and 8 and 9 and 4.

Question: What about the “Rat Weight” value (individual rats, Group 3, 3 mg/kg PO daily, study day 0, day of TNBS, before dosing) of the same compound?
Answer: Its value is 218 g and 213 g and 206 g and 220 g and 205 g and 217 g (2×) and 214 g.

Question: And the “Rat Weight” value (individual rats, Group 3, 3 mg/kg PO daily, study day 1, before first dose)?
Answer: Its value is 210 g and 213 g and 198 g and 214 g (2×) and 197 g and 204 g and 206 g.

Question: And the “Rat Weight” value (individual rats, Group 3, 3 mg/kg PO daily, study day 2)?
Answer: Its value is 198 g and 203 g (2×) and 183 g and 187 g and 205 g and 193 g and 214 g.

Question: And the “Rat Weight” value (individual rats, Group 3, 3 mg/kg PO daily, study day 3)?
Answer: Its value is 190 g and 200 g and 180 g (2×) and 198 g (2×) and 187 g and 225 g.

Question: What about the “Rat Weight” value (individual rats, Group 3, 3 mg/kg PO daily, study day 4) of the same compound?
Answer: Its value is 187 g (2×) and 200 g and 170 g and 188 g and 173 g and 183 g and 234 g.

Question: What about the “Rat Weight” value (individual rats, Group 3, 3 mg/kg PO daily, study day 5) of the same compound?
Answer: Its value is 189 g and 200 g and 167 g and 182 g (2×) and 172 g and 185 g and 244 g.

Question: What about the “Rat Weight” value (individual rats, Group 3, 3 mg/kg PO daily, study day 6) of the same compound?
Answer: The value was 212 g and 202 g and 163 g and 176 g and 172 g and 186 g and 188 g and 250 g.

Question: And the “Rat Weight” value (individual rats, Group 3, 3 mg/kg PO daily, study day 7)?
Answer: The value was 236 g and 210 g and 178 g (2×) and 177 g and 179 g and 194 g and 256 g.

Question: And the “Rat Weight” value (individual rats, Group 3, 3 mg/kg PO daily, study day −3, before TNBS and dosing)?
Answer: Its value is 218 g and 212 g and 210 g and 219 g and 209 g and 220 g and 217 g and 213 g.
